{"source": "paper PMC4798913", "about": "(ACS chemical biology, 2015)", "key": {"PRMT9": {"target": "T1, PRMT9 (Homo sapiens, UniProt Q6P2P2)", "T1 sequence (Q6P2P2 1-845)": "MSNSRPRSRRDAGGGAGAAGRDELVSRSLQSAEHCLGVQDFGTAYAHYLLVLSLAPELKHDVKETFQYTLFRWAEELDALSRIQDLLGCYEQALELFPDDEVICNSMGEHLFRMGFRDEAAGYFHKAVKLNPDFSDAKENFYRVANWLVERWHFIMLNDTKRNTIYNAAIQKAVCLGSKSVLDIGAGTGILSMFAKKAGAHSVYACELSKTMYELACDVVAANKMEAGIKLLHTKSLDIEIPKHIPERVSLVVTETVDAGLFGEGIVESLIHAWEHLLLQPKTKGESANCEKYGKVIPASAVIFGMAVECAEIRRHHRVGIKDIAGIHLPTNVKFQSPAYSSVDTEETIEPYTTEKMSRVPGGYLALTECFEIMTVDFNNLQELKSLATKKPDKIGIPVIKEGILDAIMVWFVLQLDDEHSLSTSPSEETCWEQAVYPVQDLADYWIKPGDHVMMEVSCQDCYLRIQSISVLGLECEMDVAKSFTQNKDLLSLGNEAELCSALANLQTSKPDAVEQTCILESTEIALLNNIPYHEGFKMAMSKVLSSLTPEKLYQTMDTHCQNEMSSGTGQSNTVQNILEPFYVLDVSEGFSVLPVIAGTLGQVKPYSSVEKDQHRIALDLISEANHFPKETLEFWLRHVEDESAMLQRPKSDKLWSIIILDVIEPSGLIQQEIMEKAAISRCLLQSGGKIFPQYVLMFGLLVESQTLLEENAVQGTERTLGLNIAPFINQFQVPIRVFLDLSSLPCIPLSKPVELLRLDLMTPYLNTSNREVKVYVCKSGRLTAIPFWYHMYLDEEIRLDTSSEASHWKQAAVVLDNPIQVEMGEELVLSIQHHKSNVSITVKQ", "experiment": "PRMT biochemical scintillation proximity assay", "settings": "for inhibition of type II PRMT (PRMT9): concentration not given"}, "PRMT5": {"target": "PRMT5 (Homo sapiens, UniProt O14744)", "sequence (O14744 whole entry)": "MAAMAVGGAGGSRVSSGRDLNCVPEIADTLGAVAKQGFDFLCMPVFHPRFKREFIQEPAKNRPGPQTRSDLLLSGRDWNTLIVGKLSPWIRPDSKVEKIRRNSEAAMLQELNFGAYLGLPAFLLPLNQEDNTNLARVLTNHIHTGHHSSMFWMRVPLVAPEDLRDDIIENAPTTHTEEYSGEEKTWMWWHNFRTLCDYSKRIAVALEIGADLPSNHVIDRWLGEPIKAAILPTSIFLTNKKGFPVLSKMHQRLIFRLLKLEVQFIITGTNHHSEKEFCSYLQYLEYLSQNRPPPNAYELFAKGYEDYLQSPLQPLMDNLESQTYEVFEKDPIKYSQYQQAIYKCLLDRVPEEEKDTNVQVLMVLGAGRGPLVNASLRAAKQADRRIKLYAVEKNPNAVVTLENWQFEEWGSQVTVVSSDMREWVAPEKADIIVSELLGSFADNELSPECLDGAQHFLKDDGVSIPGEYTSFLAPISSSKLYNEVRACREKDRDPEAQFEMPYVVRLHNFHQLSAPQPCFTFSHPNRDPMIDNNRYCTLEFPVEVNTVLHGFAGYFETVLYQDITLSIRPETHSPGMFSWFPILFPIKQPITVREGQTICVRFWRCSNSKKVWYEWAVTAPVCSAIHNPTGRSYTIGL", "sequence (Q9BQA1 whole entry partner)": "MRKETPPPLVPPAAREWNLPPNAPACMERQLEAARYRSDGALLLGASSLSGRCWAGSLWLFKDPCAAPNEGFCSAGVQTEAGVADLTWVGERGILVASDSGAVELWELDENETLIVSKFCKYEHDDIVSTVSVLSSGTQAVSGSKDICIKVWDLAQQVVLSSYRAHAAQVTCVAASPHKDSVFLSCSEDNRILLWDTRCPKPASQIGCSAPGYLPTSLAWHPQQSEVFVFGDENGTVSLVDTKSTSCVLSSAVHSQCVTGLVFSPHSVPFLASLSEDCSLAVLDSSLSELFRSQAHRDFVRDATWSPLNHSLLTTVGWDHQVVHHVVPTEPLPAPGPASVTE", "experiment": "PRMT biochemical scintillation proximity assay", "settings": "for inhibition of type II PRMT (PRMT5): concentration not given"}, "PRMT7": {"target": "T2, PRMT7 (Homo sapiens, UniProt Q9NVM4)", "T2 sequence (Q9NVM4 1-692)": "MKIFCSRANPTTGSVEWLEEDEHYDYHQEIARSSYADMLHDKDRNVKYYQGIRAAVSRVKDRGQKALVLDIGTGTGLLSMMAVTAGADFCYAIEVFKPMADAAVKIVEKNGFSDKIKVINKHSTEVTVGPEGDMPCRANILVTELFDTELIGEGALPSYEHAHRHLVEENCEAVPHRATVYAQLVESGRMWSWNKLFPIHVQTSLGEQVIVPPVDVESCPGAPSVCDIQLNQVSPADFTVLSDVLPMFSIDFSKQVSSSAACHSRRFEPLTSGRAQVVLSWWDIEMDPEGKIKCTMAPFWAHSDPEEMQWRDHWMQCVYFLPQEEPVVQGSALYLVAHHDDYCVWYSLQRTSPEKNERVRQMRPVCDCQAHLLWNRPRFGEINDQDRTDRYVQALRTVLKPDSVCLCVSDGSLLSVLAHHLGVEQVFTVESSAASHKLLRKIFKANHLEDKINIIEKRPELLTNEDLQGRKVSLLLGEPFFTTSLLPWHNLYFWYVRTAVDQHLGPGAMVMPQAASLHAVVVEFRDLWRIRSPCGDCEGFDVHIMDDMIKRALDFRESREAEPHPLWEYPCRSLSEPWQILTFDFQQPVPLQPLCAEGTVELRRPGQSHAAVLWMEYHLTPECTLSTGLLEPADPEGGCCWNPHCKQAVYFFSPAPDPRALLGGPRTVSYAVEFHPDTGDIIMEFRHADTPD", "experiment": "PRMT biochemical scintillation proximity assay", "settings": "for inhibition of type III PRMT (PRMT7): concentration not given"}, "PRMT1 [1]": {"target": "T3, PRMT1 (Homo sapiens, UniProt Q99873)", "T3 sequence (Q99873 whole entry)": "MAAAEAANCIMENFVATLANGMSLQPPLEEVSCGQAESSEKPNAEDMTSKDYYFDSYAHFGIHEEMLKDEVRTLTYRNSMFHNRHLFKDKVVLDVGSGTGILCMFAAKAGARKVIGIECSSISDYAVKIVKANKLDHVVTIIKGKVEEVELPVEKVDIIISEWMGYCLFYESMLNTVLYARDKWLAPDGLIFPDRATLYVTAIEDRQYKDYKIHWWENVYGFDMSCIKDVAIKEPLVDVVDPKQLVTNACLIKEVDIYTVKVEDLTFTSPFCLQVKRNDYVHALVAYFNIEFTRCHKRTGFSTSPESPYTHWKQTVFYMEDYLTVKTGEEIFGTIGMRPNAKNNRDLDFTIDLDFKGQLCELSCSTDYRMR", "experiment": "Cellular PRMT1 assay", "assay_type": "cell-based", "settings": "MCF7 cells, 48 h"}, "PRMT1 [2]": {"target": "T3, PRMT1", "experiment": "PRMT biochemical scintillation proximity assay", "settings": "read-out: IC50 PRMT1; substrate at Km; triplicate, Mean ± SD; NI: no inhibition"}, "PRMT4": {"target": "T4, PRMT4 (Homo sapiens, UniProt Q86X55)", "T4 sequence (Q86X55 1-608)": "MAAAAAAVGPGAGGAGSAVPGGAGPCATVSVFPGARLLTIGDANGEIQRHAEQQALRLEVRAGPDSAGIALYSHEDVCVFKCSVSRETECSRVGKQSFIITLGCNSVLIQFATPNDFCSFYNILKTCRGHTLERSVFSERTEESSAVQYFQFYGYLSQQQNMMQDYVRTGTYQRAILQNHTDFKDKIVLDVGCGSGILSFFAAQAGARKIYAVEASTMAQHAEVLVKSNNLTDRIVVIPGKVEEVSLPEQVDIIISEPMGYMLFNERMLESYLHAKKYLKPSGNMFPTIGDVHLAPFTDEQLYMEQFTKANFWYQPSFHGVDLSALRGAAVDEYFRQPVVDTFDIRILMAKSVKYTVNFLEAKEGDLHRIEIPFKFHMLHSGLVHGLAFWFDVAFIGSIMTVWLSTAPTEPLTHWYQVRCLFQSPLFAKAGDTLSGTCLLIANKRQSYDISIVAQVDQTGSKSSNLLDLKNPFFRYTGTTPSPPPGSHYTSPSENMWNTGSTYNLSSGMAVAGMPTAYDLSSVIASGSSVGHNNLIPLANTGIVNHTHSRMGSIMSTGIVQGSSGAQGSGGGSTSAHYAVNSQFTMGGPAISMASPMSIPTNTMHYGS", "experiment": "PRMT biochemical scintillation proximity assay", "settings": "read-out: IC50 PRMT4; substrate at Km; triplicate, Mean ± SD; NI: no inhibition"}, "PRMT3": {"target": "PRMT3 (Homo sapiens, UniProt O60678)", "sequence (O60678 whole entry)": "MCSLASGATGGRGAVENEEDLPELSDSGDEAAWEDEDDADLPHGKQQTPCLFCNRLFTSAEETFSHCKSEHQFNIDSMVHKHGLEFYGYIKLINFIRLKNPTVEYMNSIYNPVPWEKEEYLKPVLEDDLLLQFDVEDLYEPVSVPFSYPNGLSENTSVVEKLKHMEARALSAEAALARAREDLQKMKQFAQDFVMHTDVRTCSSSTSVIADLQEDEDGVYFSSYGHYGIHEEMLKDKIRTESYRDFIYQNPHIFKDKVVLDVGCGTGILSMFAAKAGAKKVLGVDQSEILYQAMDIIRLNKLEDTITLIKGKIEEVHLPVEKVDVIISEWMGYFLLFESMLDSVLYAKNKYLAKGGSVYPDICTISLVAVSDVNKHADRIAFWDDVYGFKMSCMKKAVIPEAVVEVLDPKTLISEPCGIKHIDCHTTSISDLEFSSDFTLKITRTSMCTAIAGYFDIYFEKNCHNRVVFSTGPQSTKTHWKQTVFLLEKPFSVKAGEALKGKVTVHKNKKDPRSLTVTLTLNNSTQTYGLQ", "experiment": "PRMT biochemical scintillation proximity assay", "settings": "for IC50: read-out: IC50 PRMT3, substrate at Km, triplicate, Mean ± SD, NI: no inhibition"}, "MCF7 cells": {"system": "MCF7 cells", "experiment": "Global arginine methylation Western blot", "assay_type": "cell-based", "settings": "two days (48 h)"}, "[3]": {"system": "9 methyllysine or methylarginine reader proteins", "experiment": "DSF or DSLS binding to reader proteins"}, "[4]": {"system": "eight different cell lines", "experiment": "Cell growth assay", "assay_type": "cell-based", "settings": "96 h treatment"}, "HEK293 cells [5]": {"system": "HEK293 cells", "experiment": "Global arginine methylation Western blot", "settings": "two days"}, "HEK293 cells [6]": {"system": "HEK293 cells", "experiment": "Cell growth assay", "assay_type": "cell-based", "settings": "1 μM, 4-day and long-term (10 days) treatment"}, "[7]": {"system": "25 PKMTs and DNMTs, and 3 histone lysine demethylases", "experiment": "Selectivity panel of methyltransferases and demethylases", "assay_type": "biochemical", "settings": "up to 10 μM (tested at 1 μM and 10 μM)"}, "PRMT6": {"target": "PRMT6 (Homo sapiens, UniProt Q96LA8)", "sequence (Q96LA8 whole entry)": "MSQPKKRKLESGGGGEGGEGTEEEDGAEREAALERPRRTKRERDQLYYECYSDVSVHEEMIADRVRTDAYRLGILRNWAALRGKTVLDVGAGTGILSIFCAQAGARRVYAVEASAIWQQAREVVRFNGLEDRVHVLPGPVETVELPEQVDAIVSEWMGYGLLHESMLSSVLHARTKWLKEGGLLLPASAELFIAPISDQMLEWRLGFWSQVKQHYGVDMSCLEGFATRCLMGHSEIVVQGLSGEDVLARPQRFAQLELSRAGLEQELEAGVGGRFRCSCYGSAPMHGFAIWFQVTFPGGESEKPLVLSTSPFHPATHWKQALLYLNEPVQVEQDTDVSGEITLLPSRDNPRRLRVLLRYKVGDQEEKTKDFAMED", "settings": "100 μM SAM; PRMT6 alone Tm = 52 °C"}}}
{"molecule": "CN(CCN)Cc1n[nH]nc1-c1cccc(C(F)(F)F)c1", "note": "[Compound 1]", "values": [{"measurement": "inhibition of type II PRMT (PRMT9)", "setting": "PRMT9", "result": "did not inhibit"}, {"measurement": "inhibition of type II PRMT (PRMT5)", "setting": "PRMT5", "result": "did not inhibit"}, {"measurement": "inhibition of type III PRMT (PRMT7)", "setting": "PRMT7", "result": "did not inhibit"}]}
{"molecule": "CN(CCN)Cc1c[nH]cc1-c1cccc(C(F)(F)F)c1", "note": "[Compound 2]", "values": [{"measurement": "inhibition of type II PRMT (PRMT9)", "setting": "PRMT9", "result": "did not inhibit"}, {"measurement": "inhibition of type II PRMT (PRMT5)", "setting": "PRMT5", "result": "did not inhibit"}, {"measurement": "inhibition of type III PRMT (PRMT7)", "setting": "PRMT7", "result": "did not inhibit"}]}
{"molecule": "CC(C)Oc1ccc(-c2c[nH]cc2CN(C)CC(N)=O)cc1", "note": "[Compound 5]", "values": [{"measurement": "effect on cellular levels of H4R3me2a", "setting": "PRMT1 [1]", "result": "did not decrease"}, {"measurement": "IC50", "setting": "PRMT1 [2]", "result": "> 10", "unit": "µM"}, {"measurement": "IC50", "setting": "PRMT4", "result": "> 10", "unit": "µM"}, {"measurement": "IC50", "setting": "PRMT3", "result": "> 10", "unit": "µM"}, {"measurement": "global levels of arginine asymmetric dimethylation (Rme2a)", "setting": "MCF7 cells", "result": "did not change"}, {"measurement": "global levels of arginine monomethylation (Rme1)", "setting": "MCF7 cells", "result": "did not change"}, {"measurement": "global levels of arginine symmetric dimethylation (Rme2s)", "setting": "MCF7 cells", "result": "did not change"}]}
{"molecule": "CC(C)Oc1ccc(-c2c[nH]cc2C(=O)N(C)CCN)cc1", "note": "[Compound 6]", "values": [{"measurement": "effect on cellular levels of H4R3me2a", "setting": "PRMT1 [1]", "result": "did not decrease"}, {"measurement": "IC50", "setting": "PRMT1 [2]", "result": "> 10", "unit": "µM"}, {"measurement": "IC50", "setting": "PRMT4", "result": "> 10", "unit": "µM"}, {"measurement": "IC50", "setting": "PRMT3", "result": "> 10", "unit": "µM"}, {"measurement": "global levels of arginine asymmetric dimethylation (Rme2a)", "setting": "MCF7 cells", "result": "did not change"}, {"measurement": "global levels of arginine monomethylation (Rme1)", "setting": "MCF7 cells", "result": "did not change"}, {"measurement": "global levels of arginine symmetric dimethylation (Rme2s)", "setting": "MCF7 cells", "result": "did not change"}]}
{"molecule": "CC(C)Oc1ccc(-c2c[nH]cc2CN(C)CCN)cc1", "note": "[MS023]", "values": [{"measurement": "binding to 9 methyllysine or methylarginine reader proteins", "setting": "[3]", "result": "did not show binding"}, {"measurement": "effect on cell growth", "setting": "[4]; concentrations up to 1 μM, all lines except HEK293", "result": "did not significantly impact cell growth"}, {"measurement": "effect on cell growth", "setting": "[4]; higher concentrations (e.g., 10 μM, 50 μM)", "result": "decreased cell growth in most of tested cell lines"}, {"measurement": "inhibition of PRMT9 (type II)", "setting": "PRMT9; concentrations up to 10 μM", "result": "did not inhibit"}, {"measurement": "global levels of arginine asymmetric dimethylation (Rme2a)", "setting": "HEK293 cells [5]", "result": "significant decrease"}, {"measurement": "global levels of arginine monomethylation (Rme1)", "setting": "HEK293 cells [5]", "result": "increase"}, {"measurement": "global levels of arginine symmetric dimethylation (Rme2s)", "setting": "HEK293 cells [5]", "result": "increase"}, {"measurement": "effect on cell growth", "setting": "HEK293 cells [6]", "result": "greatly affecting cell growth"}, {"measurement": "inhibition of PRMT5 (type II)", "setting": "PRMT5; concentrations up to 10 μM", "result": "did not inhibit"}, {"measurement": "inhibition of 25 PKMTs and DNMTs and 3 histone lysine demethylases", "setting": "[7]", "result": "did not inhibit"}, {"measurement": "pattern of inhibition (MOA) for PRMT3", "setting": "PRMT3; IC50 at different SAM and peptide concentrations", "result": "noncompetitive with the peptide substrate but uncompetitive with the cofactor SAM"}, {"measurement": "global levels of arginine asymmetric dimethylation (Rme2a)", "setting": "MCF7 cells", "result": "significant decrease"}, {"measurement": "global levels of arginine monomethylation (Rme1)", "setting": "MCF7 cells", "result": "increase"}, {"measurement": "global levels of arginine symmetric dimethylation (Rme2s)", "setting": "MCF7 cells", "result": "increase"}, {"measurement": "inhibition of PRMT7 (type III)", "setting": "PRMT7; concentrations up to 10 μM", "result": "did not inhibit"}]}
{"molecule": "CC(C)Oc1ccc(-c2c[nH]cc2CN(C)CCO)cc1", "note": "[MS094]", "values": [{"measurement": "effect on cellular levels of H4R3me2a", "setting": "PRMT1 [1]", "result": "did not decrease"}, {"measurement": "IC50", "setting": "PRMT1 [2]", "result": "> 10", "unit": "µM"}, {"measurement": "IC50", "setting": "PRMT4", "result": "> 10", "unit": "µM"}, {"measurement": "IC50", "setting": "PRMT3", "result": "> 10", "unit": "µM"}, {"measurement": "global levels of arginine asymmetric dimethylation (Rme2a)", "setting": "MCF7 cells", "result": "did not change"}, {"measurement": "global levels of arginine monomethylation (Rme1)", "setting": "MCF7 cells", "result": "did not change"}, {"measurement": "global levels of arginine symmetric dimethylation (Rme2s)", "setting": "MCF7 cells", "result": "did not change"}]}
{"molecule": "C[S+](CC[C@H](N)C(=O)O)C[C@H]1O[C@@H](n2cnc3c(N)ncnc32)[C@H](O)[C@@H]1O", "note": "(stereo partly drawn) [SAM, S-5′-adenosyl-L-methionine]", "values": [{"measurement": "ΔTm PRMT6 (DSF)", "setting": "PRMT6", "result": 1.6, "unit": "°C"}]}
